The results in this text go back to PMC10980815, “Cell surface patching via CXCR4-targeted nanothreads for cancer metastasis inhibition” (Nature Communications, 2024).

Assay in all cases: Dose-dependent chemokine receptor occupation assay
Format in all cases: binding, 4T1 murine cells

Experiment [1] deals with T1, CXCR4 (Mus musculus, UniProt P70658).
T1 construct: endogenous in cells; host or cells: 4T1 murine breast cancer cells
The note with it: 4T1 cells, 0.1 nM to 1 mM, 25 °C, 1 h; unoccupied receptor stained with PE antibody. How it is done: (§1) To validate the specificity of the BS (CXCR4-binding sequence) to CXCR4, a dose-dependent chemokine receptors occupation assay and a chemokine receptors competitive binding assay were conducted. […] Unoccupied chemokine receptors (CXCR4, CXCR7, CXCR2, CXCR5, and CCR4) on cell surface were stained with PE anti-human CD184/CXCR4 Antibody (1:300 dilution), anti-CXCR7-PE (1:300 dilution), anti-CXCR2-PE (1:300 dilution), anti-CXCR5-PE (1:300 dilution), and PE anti-human CD194/CCR4 Antibody (1:300 dilution) at 4 °C for 1 h, prior to flow cytometry analysis. In the chemokine receptors competitive binding assay, 4T1 cells (5 × 10^5 cells) were pre-blocked with PE anti-human CD184/CXCR4 Antibody (1:300 dilution), anti-CXCR7-PE (1:300 dilution), anti-CXCR2-PE (1:300 dilution), anti-CXCR5-PE (1:300 dilution), and PE anti-human CD194/CCR4 Antibody (1:300 dilution) at 4 °C for 1 h. Subsequently, these cells were treated with P-Cy5-BS-CM1-Cy5 (5 nM Cy5 equivalence) for 1 h. Following the treatments, cells were washed three times with PBS and subjected to flow cytometry analysis.

Experiment [2] concerns the target T2, CCR4 (Mus musculus, UniProt P51680).
T2 construct: endogenous in cells; host or cells: 4T1 murine breast cancer cells
T2 sequence (P51680 1-360): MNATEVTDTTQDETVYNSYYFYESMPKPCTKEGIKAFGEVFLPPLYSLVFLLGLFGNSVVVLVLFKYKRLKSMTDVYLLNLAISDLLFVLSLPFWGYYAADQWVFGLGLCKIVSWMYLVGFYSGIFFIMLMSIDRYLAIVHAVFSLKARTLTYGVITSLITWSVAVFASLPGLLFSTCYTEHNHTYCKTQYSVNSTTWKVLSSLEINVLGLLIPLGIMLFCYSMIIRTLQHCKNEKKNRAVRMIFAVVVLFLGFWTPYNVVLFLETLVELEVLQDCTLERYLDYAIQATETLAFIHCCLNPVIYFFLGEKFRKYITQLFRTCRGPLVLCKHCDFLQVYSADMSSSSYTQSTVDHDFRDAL
Conditions: 4T1 cells, 0.1 nM to 1 mM, 1 h. How it is done:
as §1

Experiment [3] concerns the target T3, CXCR7 (Mus musculus, UniProt P56485).
T3 construct: endogenous in cells; host or cells: 4T1 murine breast cancer cells
The note with it: 4T1 cells, 0.1 nM to 1 mM, 1 h. As for the experimental part: as §1

The target of experiment [4] is T4, CXCR2 (Mus musculus, UniProt P35343).
T4 construct: endogenous in cells; host or cells: 4T1 murine breast cancer cells
T4 sequence (P35343 1-359): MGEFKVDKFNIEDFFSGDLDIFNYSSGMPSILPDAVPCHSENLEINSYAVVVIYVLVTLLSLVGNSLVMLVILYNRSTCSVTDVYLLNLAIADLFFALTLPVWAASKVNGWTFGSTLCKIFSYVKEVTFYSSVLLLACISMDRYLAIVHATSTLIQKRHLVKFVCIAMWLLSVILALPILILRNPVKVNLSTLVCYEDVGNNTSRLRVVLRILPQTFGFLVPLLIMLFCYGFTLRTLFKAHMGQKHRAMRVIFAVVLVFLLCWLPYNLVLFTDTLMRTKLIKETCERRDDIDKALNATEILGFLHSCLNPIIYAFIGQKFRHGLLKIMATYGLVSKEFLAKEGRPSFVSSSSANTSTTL
Conditions: 4T1 cells, 0.1 nM to 1 mM, 1 h. How it is done: as §1

Experiment [5] addresses T5, CXCR5 (Mus musculus, UniProt Q04683).
T5 construct: endogenous in cells; host or cells: 4T1 murine breast cancer cells
T5 sequence (Q04683 1-374): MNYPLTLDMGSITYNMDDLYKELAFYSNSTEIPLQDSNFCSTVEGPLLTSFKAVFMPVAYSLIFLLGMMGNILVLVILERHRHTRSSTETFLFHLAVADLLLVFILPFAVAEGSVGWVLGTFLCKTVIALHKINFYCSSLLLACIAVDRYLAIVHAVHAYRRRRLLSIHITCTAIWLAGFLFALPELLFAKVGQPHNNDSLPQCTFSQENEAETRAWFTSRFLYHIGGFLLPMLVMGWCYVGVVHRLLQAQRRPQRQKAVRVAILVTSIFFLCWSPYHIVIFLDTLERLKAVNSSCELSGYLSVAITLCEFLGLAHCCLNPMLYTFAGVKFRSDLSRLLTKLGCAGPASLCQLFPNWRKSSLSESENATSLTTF
The note with it: 4T1 cells, 0.1 nM to 1 mM, 1 h. How it is done: as §1

T3 sequence (P56485 whole entry): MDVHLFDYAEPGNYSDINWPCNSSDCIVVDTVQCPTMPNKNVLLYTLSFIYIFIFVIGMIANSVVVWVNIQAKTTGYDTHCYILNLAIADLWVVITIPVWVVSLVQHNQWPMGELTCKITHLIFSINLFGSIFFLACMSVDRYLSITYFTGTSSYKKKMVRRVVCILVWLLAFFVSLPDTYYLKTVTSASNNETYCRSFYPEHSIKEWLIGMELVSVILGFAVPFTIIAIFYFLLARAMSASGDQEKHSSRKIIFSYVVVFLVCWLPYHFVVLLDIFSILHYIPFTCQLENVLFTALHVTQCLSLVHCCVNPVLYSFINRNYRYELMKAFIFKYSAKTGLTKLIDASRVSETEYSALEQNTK
T1 sequence (P70658 whole entry): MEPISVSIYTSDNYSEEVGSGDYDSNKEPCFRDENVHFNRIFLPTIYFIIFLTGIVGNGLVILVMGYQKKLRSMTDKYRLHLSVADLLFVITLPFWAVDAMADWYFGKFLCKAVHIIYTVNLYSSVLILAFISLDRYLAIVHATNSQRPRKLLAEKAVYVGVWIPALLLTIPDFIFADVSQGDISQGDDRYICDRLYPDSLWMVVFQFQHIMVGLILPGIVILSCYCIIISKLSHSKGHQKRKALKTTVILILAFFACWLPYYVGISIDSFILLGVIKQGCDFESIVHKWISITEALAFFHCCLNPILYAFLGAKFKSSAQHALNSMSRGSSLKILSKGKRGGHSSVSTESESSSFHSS

Take LGASWHRPDKCCLGYQKRPLPA [Free BS]: the CXCR4 occupation result in experiment [1] is “comparable CXCR4 occupation to AMD3100”. Moreover, the CCR4 occupation entry in experiment [2] is on record as “did not occupy”. Further, the CXCR7 occupation result in experiment [3] was “did not occupy”. Also, the CXCR2 occupation result in experiment [4] is listed as “did not occupy”. Further, in experiment [5], the CXCR5 occupation result was “did not occupy”.
